Where a name gives a salt, the structure may show the parent alone.
target: T1, human α-thrombin (Homo sapiens, UniProt P00734); assay: In vitro inhibition of purified enzymes: Ki determination, thrombin (hydrolysis of N-succinyl-Ala-Ala-Pro-Arg-p-nitroanilide); type: biochemical; conditions: purified human α-thrombin 0.5 nM, 50 mM HEPES, 200 mM NaCl, pH 7.5, 37° C., 4.3% DMSO
T1 construct: Purified human α-thrombin; purchased Enzyme Research Laboratories (South Bend, Ind.)
From the text: Reagents: All buffer salts were obtained from Sigma Chemical Company (St. Louis, Mo.), and were of the highest purity avalable. The enzyme substrates, N-benzoyl-Phe—Val—Arg-p-nitroanilide (Sigma B7632), N-benzoyl-Ile—Glu—Gly—Arg-p-nitroanilide hydrochloride (Sigma B2291), N-p-Tosyl-Gly—Pro—Lys-p-nitroanilide (Sigma T6140), N-succinyl-Ala—Ala—Pro—Phe-p-nitroanilide (Sigma S7388) and N-CBZ-Val—Gly—Arg-p-nitroanilide (Sigma C7271) were obtained from Sigma.
Human α-thrombin, human factor Xa and human plasmin were obtained from Enzyme Research Laboratories (South Bend, Ind.). Bovine α-chymotrypsin (Sigma C4129), bovine trypsin (Sigma T8642) and human kidney cell urokinase (Sigma U5004) were obtained from Sigma. Human leukocyte elastase was obtained from Elastin Products (Pacific, Mo.).
Ki Determinations: All assays are based on the ability of the test compound to inhibit the enzyme catalyzed hydrolysis of a peptide-p-nitroanililide substrate. […] The final concentrations for each of the substrates is listed below. […] Dilutions are prepared in DMSO yielding 8 final concentrations encompassing a 200 fold concentration range. Enzyme solutions are prepared at the concentrations listed below in assay buffer.
Data corresponding to less than 10% of the total substrate hydrolysis were used in the calculations. The ratio of the velocity (rate of change in absorbance as a function of time) for a sample containing no test compound is divided by the velocity of a sample containing test compound, and is plotted as a function of test compound concentration. The data are fit to a linear regression, and the value of the slope of the line calculated. The inverse of the slope is the experimentally determined K value.
Thrombin: Thrombin activity was assessed as the ability to hydrolyze the substrate N-succinyl-Ala—Ala—Pro—Arg-p-nitroanilide. […] Final DMSO concentration was 4.3%. […] Final reagent concentrations were: [thrombin]=0.5 nM, [substrate N-succinyl-Ala—Ala—Pro—Arg-p-nitroanilide]=32 mM.

| Ki | SMILES |
| --- | --- |
| 46 nM | Cc1cnc(NCCc2ccccc2)c(=O)n1CC(=O)NCCONC(=N)N [Example 1, 1-{N-[2-(amidinoaminooxy)ethyl]amino}carbonylmethyl-6-methyl-3-(phenethylamino)-pyrazinone trifluoroacetate] |
| 330 nM | Cc1c(Cl)nc(NCCc2ccccc2)c(=O)n1CC(=O)NCCONC(=N)N [Example 2, 1-{N-[2-(amidinoaminooxy)ethyl]amino}carbonylmethyl-5-chloro-6-methyl-3-(phenethylamino)-pyrazinone trifluoroacetate] |
| 85 nM | Cc1c(Cl)nc(NCC(c2ccccc2)c2ccccc2)c(=O)n1CC(=O)NCCONC(=N)N [Example 4, 1-{N-[2-(amidinoaminooxy)ethyl]amino}carbonylmethyl-5-chloro-6-methyl-3-(2,2-diphenylethylamino)-pyrazinone trifluoroacetate] |
| 20 nM | Cc1ccc(CCNc2ncc(C)n(CC(=O)NCCONC(=N)N)c2=O)cc1 [Example 5, 1-{N-[2-(amidinoaminooxy)ethyl]amino}carbonylmethyl-6-methyl-3-(4-methylphenethylamino)-pyrazinone trifluoroacetate] |

— US6514978B2, “Thromboresistant materials incorporating pyrazinone protease inhibitors” (3-Dimensional Pharmaceuticals, Inc., priority 1998, dated 2003)
